According to paper PMC8698454, “Anti-Colonization Effect of Au Surfaces with Self-Assembled Molecular Monolayers Functionalized with Antimicrobial Peptides on S. epidermidis” (Antibiotics, 2021):
Where two headings read alike, the source gives them in different places. Where a SMILES comes first, the peptide text is derived from it. [ ]: non-standard residue; d: D form. Bip = N[C@@H](Cc1ccc(-c2ccccc2)cc1)C(=O)O; Lys(N3) = [N-]=[N+]=NCCCC[C@H](N)C(=O)O

How the values were obtained:
Format in all cases: cell-based
[1] = test system: Escherichia coli ATCC 25922; details: for Antimicrobial Activity (MIC) E. coli: ATCC 25922; for MIC E. coli ATCC 25922: Table S3
Description: (§1) The minimal inhibitory concentration (MIC) of peptides 1a, 1b, 2a, and 2b were determined by broth microdilution according to the Clinical Laboratory Standard Institute (CLSI) method […]-A9. The MICs of the peptides 1c, 1d, 2c, and 2d were determined by broth dilution according to the European Committee for Antimicrobial Susceptibility Testing (EUCAST). Final concentrations of 0.5-256 μg/mL were tested against a panel of reference bacteria-S. aureus (ATCC 9144), S. epidermidis (1457), E. coli (ATCC 25922), and P. aeruginosa (ATCC 27853). Each strain was tested in biological triplicate. The MIC values were defined as the lowest concentration of the peptides resulting in no visual growth.

[2] = test system: Pseudomonas aeruginosa ATCC 27853; details: for Antimicrobial Activity (MIC) P. aeruginosa: ATCC 27853; for MIC P. aeruginosa ATCC 27853: Table S3
Description: as §1

[3] = test system: Staphylococcus aureus ATCC 9144; details: for Antimicrobial Activity (MIC) S. aureus: ATCC 9144; for MIC S. aureus ATCC 9144: Table S3
Description: as §1

[4] = test system: Staphylococcus epidermidis 1457; details: for Antimicrobial Activity (MIC) S. epidermidis: 1457; for MIC S. epidermidis 1457: Table S3
Description: as §1

[5] = technical replicate 1, biological replicate BR1
[6] = technical replicate 1, biological replicate BR2
[7] = technical replicate 1, biological replicate BR3
[8] = technical replicate 2, biological replicate BR1
[9] = technical replicate 2, biological replicate BR2
[10] = technical replicate 2, biological replicate BR3
[11] = technical replicate 3, biological replicate BR1
[12] = technical replicate 3, biological replicate BR2
[13] = technical replicate 3, biological replicate BR3

[N-]=[N+]=NCCCC[C@H](NC(=O)[C@H](Cc1ccccc1)NC(=O)[C@H](CCCNC(=N)N)NC(=O)[C@H](Cc1ccc(-c2ccccc2)cc1)NC(=O)[C@H](Cc1ccc(-c2ccccc2)cc1)NC(=O)[C@@H](N)CCCNC(=N)N)C(N)=O [2c] (H-R[Bip][Bip]RF[Lys(N3)]-NH2)
16 µg/mL: MIC E. coli ATCC 25922 [1, 7] | MIC E. coli ATCC 25922 [1, 10] | MIC E. coli ATCC 25922 [1, 12] | Antimicrobial Activity (MIC) P. aeruginosa [2] | MIC P. aeruginosa ATCC 27853 [2, 7] | MIC P. aeruginosa ATCC 27853 [2, 8] | MIC P. aeruginosa ATCC 27853 [2, 9] | MIC P. aeruginosa ATCC 27853 [2, 10] | MIC P. aeruginosa ATCC 27853 [2, 11] | MIC P. aeruginosa ATCC 27853 [2, 13]
8 µg/mL: Antimicrobial Activity (MIC) E. coli [1] | MIC E. coli ATCC 25922 [1, 5] | MIC E. coli ATCC 25922 [1, 6] | MIC E. coli ATCC 25922 [1, 8] | MIC E. coli ATCC 25922 [1, 9] | MIC E. coli ATCC 25922 [1, 11] | MIC E. coli ATCC 25922 [1, 13] | MIC P. aeruginosa ATCC 27853 [2, 5] | MIC P. aeruginosa ATCC 27853 [2, 6] | MIC P. aeruginosa ATCC 27853 [2, 12] | Antimicrobial Activity (MIC) S. aureus [3] | MIC S. aureus ATCC 9144 [3, 5] | MIC S. aureus ATCC 9144 [3, 7] | MIC S. aureus ATCC 9144 [3, 8] | MIC S. aureus ATCC 9144 [3, 9] | MIC S. aureus ATCC 9144 [3, 10] | MIC S. aureus ATCC 9144 [3, 11] | MIC S. aureus ATCC 9144 [3, 13] | MIC S. epidermidis 1457 [4, 5] | MIC S. epidermidis 1457 [4, 7] | MIC S. epidermidis 1457 [4, 10] | MIC S. epidermidis 1457 [4, 13]
4 µg/mL: MIC S. aureus ATCC 9144 [3, 6] | MIC S. aureus ATCC 9144 [3, 12] | Antimicrobial Activity (MIC) S. epidermidis [4] | MIC S. epidermidis 1457 [4, 6] | MIC S. epidermidis 1457 [4, 8] | MIC S. epidermidis 1457 [4, 9] | MIC S. epidermidis 1457 [4, 11] | MIC S. epidermidis 1457 [4, 12]

[N-]=[N+]=NCCCC[C@@H]1NC(=O)[C@H](Cc2ccccc2)NC(=O)[C@H](CCCNC(=N)N)NC(=O)[C@H](Cc2ccc(-c3ccccc3)cc2)NC(=O)[C@H](Cc2ccc(-c3ccccc3)cc2)NC(=O)[C@H](CCCNC(=N)N)NC1=O [2d] (cyclo(R[Bip][Bip]RF[Lys(N3)]))
8 µg/mL: MIC S. aureus ATCC 9144 [3, 5] | MIC S. aureus ATCC 9144 [3, 10]
2 µg/mL: Antimicrobial Activity (MIC) S. epidermidis [4] | MIC S. epidermidis 1457 [4, 6] | MIC S. epidermidis 1457 [4, 7] | MIC S. epidermidis 1457 [4, 8] | MIC S. epidermidis 1457 [4, 9] | MIC S. epidermidis 1457 [4, 10] | MIC S. epidermidis 1457 [4, 11] | MIC S. epidermidis 1457 [4, 12] | MIC S. epidermidis 1457 [4, 13]
4 µg/mL: Antimicrobial Activity (MIC) S. aureus [3] | MIC S. aureus ATCC 9144 [3, 6] | MIC S. aureus ATCC 9144 [3, 7] | MIC S. aureus ATCC 9144 [3, 8] | MIC S. aureus ATCC 9144 [3, 9] | MIC S. aureus ATCC 9144 [3, 11] | MIC S. aureus ATCC 9144 [3, 12] | MIC S. aureus ATCC 9144 [3, 13] | MIC S. epidermidis 1457 [4, 5]
32 µg/mL: MIC E. coli ATCC 25922 [1, 10] | MIC E. coli ATCC 25922 [1, 13]
64 µg/mL: Antimicrobial Activity (MIC) E. coli [1] | MIC E. coli ATCC 25922 [1, 5] | MIC E. coli ATCC 25922 [1, 6] | MIC E. coli ATCC 25922 [1, 7] | MIC E. coli ATCC 25922 [1, 8] | MIC E. coli ATCC 25922 [1, 9] | MIC E. coli ATCC 25922 [1, 11] | MIC E. coli ATCC 25922 [1, 12]
256 µg/mL: Antimicrobial Activity (MIC) P. aeruginosa [2] | MIC P. aeruginosa ATCC 27853 [2, 5] | MIC P. aeruginosa ATCC 27853 [2, 6] | MIC P. aeruginosa ATCC 27853 [2, 7] | MIC P. aeruginosa ATCC 27853 [2, 8] | MIC P. aeruginosa ATCC 27853 [2, 9] | MIC P. aeruginosa ATCC 27853 [2, 10] | MIC P. aeruginosa ATCC 27853 [2, 11] | MIC P. aeruginosa ATCC 27853 [2, 12] | MIC P. aeruginosa ATCC 27853 [2, 13]
